Values joined by “and” are separate entries in the source; they are usually repeats but may differ in a detail not shown here. Equal values may be shown once.
Columns and labels:
Assay in all cases: In-cell proteome-wide competitive ABPP, HEK293: other DUBs and proteins
[1] = target: DUBs and other proteins in HEK293 cells (Homo sapiens, UniProt O00303); conditions: for Log2 reporter intensity values, EIF3F: TMT replicates; for Log2 reporter intensity values / Log2 reporter intensity values: EIF3F: replicates A-C; for Log2 reporter intensity values: EIF3F: competition with ABP 2, DMSO substract (FC)
Sequence of DUBs and other proteins in HEK293 cells (Homo sapiens, UniProt O00303) (O00303 whole entry): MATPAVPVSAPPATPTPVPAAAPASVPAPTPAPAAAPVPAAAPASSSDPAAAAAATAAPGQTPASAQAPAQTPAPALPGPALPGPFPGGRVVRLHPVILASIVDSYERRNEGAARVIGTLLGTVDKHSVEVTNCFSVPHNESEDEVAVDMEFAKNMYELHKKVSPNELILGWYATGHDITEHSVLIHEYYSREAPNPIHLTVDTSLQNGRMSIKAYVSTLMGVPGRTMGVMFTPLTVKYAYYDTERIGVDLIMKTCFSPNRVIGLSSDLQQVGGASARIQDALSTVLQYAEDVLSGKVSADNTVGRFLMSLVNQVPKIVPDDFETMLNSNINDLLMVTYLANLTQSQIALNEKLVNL

[2] = target: DUBs and other proteins in HEK293 cells (Homo sapiens, UniProt Q96BN8); conditions: replicates A-C; for Log2 reporter intensity values: OTULIN: competition with ABP 2, DMSO substract (FC); for Log2 reporter intensity values: OTULIN, DMSO subtracted
Sequence of DUBs and other proteins in HEK293 cells (Homo sapiens, UniProt Q96BN8) (Q96BN8 whole entry): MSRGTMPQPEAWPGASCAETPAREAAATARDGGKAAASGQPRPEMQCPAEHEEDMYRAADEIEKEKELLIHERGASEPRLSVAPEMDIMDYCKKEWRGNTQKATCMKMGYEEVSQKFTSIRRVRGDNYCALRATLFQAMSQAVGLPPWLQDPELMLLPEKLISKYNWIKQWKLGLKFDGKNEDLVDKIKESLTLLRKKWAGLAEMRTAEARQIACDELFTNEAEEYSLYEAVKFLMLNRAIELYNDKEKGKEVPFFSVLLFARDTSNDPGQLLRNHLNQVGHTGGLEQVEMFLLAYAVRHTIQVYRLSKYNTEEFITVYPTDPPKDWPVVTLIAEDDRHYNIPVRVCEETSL

[3] = target: DUBs and other proteins in HEK293 cells (Homo sapiens, UniProt Q93009); conditions: replicates A-C; for Log2 reporter intensity values: USP7: competition with ABP 2, DMSO substract (FC); for Log2 reporter intensity values: USP7, DMSO subtracted
Sequence of DUBs and other proteins in HEK293 cells (Homo sapiens, UniProt Q93009) (Q93009 whole entry): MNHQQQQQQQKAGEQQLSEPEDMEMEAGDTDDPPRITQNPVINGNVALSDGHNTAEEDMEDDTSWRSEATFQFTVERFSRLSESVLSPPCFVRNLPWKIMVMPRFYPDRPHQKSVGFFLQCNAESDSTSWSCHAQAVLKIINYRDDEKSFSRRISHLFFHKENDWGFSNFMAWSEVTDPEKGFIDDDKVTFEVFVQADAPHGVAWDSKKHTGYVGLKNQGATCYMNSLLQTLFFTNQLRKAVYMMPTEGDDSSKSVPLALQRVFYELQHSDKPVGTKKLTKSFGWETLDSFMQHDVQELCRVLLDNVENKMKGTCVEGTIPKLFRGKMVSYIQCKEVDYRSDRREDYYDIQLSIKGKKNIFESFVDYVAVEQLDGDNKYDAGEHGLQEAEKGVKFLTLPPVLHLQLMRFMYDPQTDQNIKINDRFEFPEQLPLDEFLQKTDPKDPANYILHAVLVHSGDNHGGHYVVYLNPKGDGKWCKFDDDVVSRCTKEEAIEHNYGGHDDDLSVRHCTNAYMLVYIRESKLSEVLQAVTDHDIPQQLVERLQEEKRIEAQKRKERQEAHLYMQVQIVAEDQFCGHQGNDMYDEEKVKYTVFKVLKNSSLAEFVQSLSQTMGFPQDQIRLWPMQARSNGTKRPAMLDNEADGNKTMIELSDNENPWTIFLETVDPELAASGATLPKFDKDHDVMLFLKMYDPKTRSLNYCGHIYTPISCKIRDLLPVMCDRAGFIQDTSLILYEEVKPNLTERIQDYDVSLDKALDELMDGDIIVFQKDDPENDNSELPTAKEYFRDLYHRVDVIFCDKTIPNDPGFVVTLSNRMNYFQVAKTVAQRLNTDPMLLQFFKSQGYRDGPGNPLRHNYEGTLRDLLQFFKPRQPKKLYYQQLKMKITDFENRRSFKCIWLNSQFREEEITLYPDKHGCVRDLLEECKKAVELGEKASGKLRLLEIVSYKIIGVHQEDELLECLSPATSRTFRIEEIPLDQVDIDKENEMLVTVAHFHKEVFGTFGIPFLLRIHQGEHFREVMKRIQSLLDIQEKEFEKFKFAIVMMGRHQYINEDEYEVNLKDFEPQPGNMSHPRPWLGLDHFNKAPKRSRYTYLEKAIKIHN

[4] = target: DUBs and other proteins in HEK293 cells (Homo sapiens, UniProt P51784); conditions: replicates A-C; for Log2 reporter intensity values: USP11: competition with ABP 2, DMSO substract (FC); for Log2 reporter intensity values: USP11, DMSO subtracted
Sequence of DUBs and other proteins in HEK293 cells (Homo sapiens, UniProt P51784) (P51784 whole entry): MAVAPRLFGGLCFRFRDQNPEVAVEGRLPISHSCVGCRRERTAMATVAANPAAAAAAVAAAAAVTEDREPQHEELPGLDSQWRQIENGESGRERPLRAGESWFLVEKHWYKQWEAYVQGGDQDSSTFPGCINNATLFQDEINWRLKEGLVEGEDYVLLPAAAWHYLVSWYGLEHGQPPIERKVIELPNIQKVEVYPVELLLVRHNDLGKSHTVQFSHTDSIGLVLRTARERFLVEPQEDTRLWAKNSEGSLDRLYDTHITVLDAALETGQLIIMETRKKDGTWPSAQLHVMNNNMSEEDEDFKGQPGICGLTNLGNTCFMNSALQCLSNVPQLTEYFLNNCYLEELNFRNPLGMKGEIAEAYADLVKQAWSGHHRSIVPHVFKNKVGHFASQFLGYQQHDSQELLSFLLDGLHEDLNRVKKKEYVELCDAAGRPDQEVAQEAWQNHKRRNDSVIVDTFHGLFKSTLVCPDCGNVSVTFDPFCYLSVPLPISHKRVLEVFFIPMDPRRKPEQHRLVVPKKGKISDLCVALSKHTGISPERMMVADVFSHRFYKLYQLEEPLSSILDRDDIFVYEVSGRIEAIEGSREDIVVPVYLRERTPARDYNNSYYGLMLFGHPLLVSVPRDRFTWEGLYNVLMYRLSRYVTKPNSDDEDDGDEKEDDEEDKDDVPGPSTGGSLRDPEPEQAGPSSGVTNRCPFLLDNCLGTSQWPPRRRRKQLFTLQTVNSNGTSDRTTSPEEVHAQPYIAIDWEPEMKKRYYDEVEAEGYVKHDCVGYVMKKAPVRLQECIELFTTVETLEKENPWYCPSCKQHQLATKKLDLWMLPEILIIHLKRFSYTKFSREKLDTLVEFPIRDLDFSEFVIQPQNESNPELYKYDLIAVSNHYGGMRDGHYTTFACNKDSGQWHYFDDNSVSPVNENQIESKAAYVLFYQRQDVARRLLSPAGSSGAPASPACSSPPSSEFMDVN

CC(=O)O/N=C1\C(=O)N(Cc2cc(Cl)ccc2Cl)c2ccc(Cl)cc21 [LDN]
Log2 reporter intensity values, EIF3F ([1]; 5 μM LDN-57444 (60 min) + 20 nM ABP 2 (10 min), All values): 0.1312 and 0.08738 and -0.0291 | Log2 reporter intensity values, EIF3F ([1]; 5 μM LDN-57444 (60 min) + 20 nM ABP 2 (10 min), DMSO subtracted): 0.1407 and 0.09693 and -0.01955 | Log2 reporter intensity values, EIF3F ([1]; 25 μM LDN-57444 (60 min) + 20 nM ABP 2 (10 min), All values): 0.03265 and -0.09761 and -0.112 | Log2 reporter intensity values, EIF3F ([1]; 25 μM LDN-57444 (60 min) + 20 nM ABP 2 (10 min), DMSO subtracted): 0.0422 and -0.08806 and -0.1024 | Log2 t-test Difference ([1]; EIF3F, LDN - 5 μM): -0.01801 | Log2 reporter intensity values ([1]; EIF3F, LDN at 5 μM, DMSO subtracted): 0.1407 and 0.09693 and -0.01955 | Log2 reporter intensity values ([1]; EIF3F, LDN at 25 μM, DMSO subtracted): 0.0422 and -0.08806 and -0.1024 | Log2 reporter intensity values ([1]; EIF3F, LDN_5 μM, DMSO subtracted): 0.102 and 0.06908 and -0.01388 | Log2 reporter intensity values ([1]; EIF3F, LDN_25 μM, DMSO subtracted): 0.02927 and -0.05963 and -0.06897 | Log2 reporter intensity values: EIF3F ([1]; LDN at 5 μM): 1.102 and 1.069 and 0.9865 | Log2 reporter intensity values: EIF3F ([1]; LDN at 25 μM): 1.03 and 0.9408 and 0.9315 | Log2 reporter intensity values: OTULIN ([2]; LDN at 5 μM): 0.9147 and 1.064 and 1.028 | Log2 reporter intensity values: OTULIN ([2]; LDN at 25 μM): 0.944 and 1.042 and 0.9874 | Log2 reporter intensity values ([2]; LDN at 5 μM): -0.1287 and 0.0891 and 0.03957 | Log2 reporter intensity values ([2]; LDN at 25 μM): -0.08321 and 0.05912 and -0.01826 | Log2 reporter intensity values ([2]; LDN_5 μM): -0.08587 and 0.06318 and 0.02728 | Log2 reporter intensity values ([2]; LDN_25 μM): -0.05657 and 0.0413 and -0.01311 | Log2 reporter intensity values: USP7 ([3]; LDN at 5 μM): 1.02 and 1.001 and 1.029 | Log2 reporter intensity values: USP7 ([3]; LDN at 25 μM): 0.9945 and 1.07 and 1.065 | Log2 reporter intensity values ([3]; LDN at 5 μM): 0.02794 and 0.001316 and 0.0413 | Log2 reporter intensity values ([3]; LDN at 25 μM): -0.007921 and 0.09748 and 0.09021 | Log2 reporter intensity values ([3]; LDN_5 μM): 0.01927 and 0.0006308 and 0.02876 | Log2 reporter intensity values ([3]; LDN_25 μM): -0.005757 and 0.06962 and 0.06425 | Log2 reporter intensity values: USP11 ([4]; LDN at 5 μM): 1.03 and 1.059 and 1.019 | Log2 reporter intensity values: USP11 ([4]; LDN at 25 μM): 1.058 and 0.9885 and 1.048 | Log2 reporter intensity values ([4]; LDN at 5 μM): 0.04194 and 0.08295 and 0.02661 | Log2 reporter intensity values ([4]; LDN at 25 μM): 0.082 and -0.01664 and 0.06827 | Log2 reporter intensity values ([4]; LDN_5 μM): 0.02916 and 0.05885 and 0.01828 | Log2 reporter intensity values ([4]; LDN_25 μM): 0.05815 and -0.0118 and 0.04812
